Data from patent US20160220801A1, “TREATING LICE WITH GASEOUS COMPOUNDS IN AN AIRTIGHT SPACE” (NOVOMIC LTD., priority 2007, published 2016).

Test system: lice
Details: active agent delivered as gas/vapour in an airtight cap around the head; comparison among carboxylic acids

| Structure (SMILES) | effectiveness of carboxylic acids for use in treating lice and nits |
| --- | --- |
| O=CO [formic acid, Formic acid] | most effective |
| CC(=O)O [acetic acid, Acetic acid] | most effective |
